From patent US7629358B2, “Compounds useful for the treatment of diseases” (Pfizer Inc, priority 2004, dated 2009)

target: T1, human β2 adrenergic receptor (Homo sapiens, UniProt P07550); test: cAMP Flashplate assay in CHO cells recombinantly expressing the human β2 adrenergic receptor; type: cell-based; conditions: CHOhβ2 cells, 1 hour incubation, data as % Isoprenaline activity
T1 construct: expressed in transfected cells; host or cells: CHO (Chinese Hamster Ovary) cells, CHOhβ2
Experimental: According to another alternative, the agonist potency for the β2 receptor of the compounds of the formula (1) may also be determined by the measure of the concentration of compound according to the present invention required to produce half maximal effect (EC50) for the β2 receptor.
10 mM/100% DMSO (dimethylsulfoxide) stock of compound is diluted to required top dose in 4% DMSO. This top dose is used to construct a 10-point semi-log dilution curve, all in 4% DMSO. Isoprenaline (Sigma, I-5627) was used as a standard in every experiment and for control wells on each plate. Data was expressed as % Isoprenaline response.
CHO (Chinese Hamster Ovary) cells recombinantly expressing the human β2 adrenergic receptor (from Kobilka et al., PNAS 84: 46-50, 1987 and Bouvier et al., Mol Pharmacol 33: 133-139 1988 CHOhβ2) were grown in Dulbeccos MEM/NUT MIX F12 (Gibco, 21331-020) supplemented with 10% foetal bovine serum (Sigma, F4135, Lot 90K8404 Exp 09/04), 2 mM glutamine (Sigma, G7513), 500 μg/ml geneticin (Sigma, G7034) and 10 μg/ml puromycin (Sigma, P8833). Cells were seeded to give about 90% confluency for testing.
25 μl/well each dose of compound was transferred into a cAMP-Flashplate® (NEN, SMP004B), with […] as basal controls and 100 nM Isoprenaline as max controls. This was diluted 1:2 by the addition of 25 μl/well PBS. Cells were trypsinised (0.25% Sigma, T4049), washed with PBS (Gibco, 14040-174) and resuspended in stimulation buffer (NEN, SMP004B) to give 1×10^6 cells/ml CHOhB2. Compounds were incubated with 50 μl/well cells for 1 hour. Cells were then lysed by the addition of 100 μl/well detection buffer (NEN, SMP004B) containing 0.18 μCi/ml ^125I-cAMP (NEN, NEX-130) and plates were incubated at room temperature for a further 2 hours. The amount of ^125I-cAMP bound to the Flashplate® was quantified using a Topcount NXT (Packard), normal counting efficiency for 1 minute. Dose-response data was expressed as % Isoprenaline activity and fitted using a four parameter sigmoid fit.

T1 sequence (P07550 whole entry): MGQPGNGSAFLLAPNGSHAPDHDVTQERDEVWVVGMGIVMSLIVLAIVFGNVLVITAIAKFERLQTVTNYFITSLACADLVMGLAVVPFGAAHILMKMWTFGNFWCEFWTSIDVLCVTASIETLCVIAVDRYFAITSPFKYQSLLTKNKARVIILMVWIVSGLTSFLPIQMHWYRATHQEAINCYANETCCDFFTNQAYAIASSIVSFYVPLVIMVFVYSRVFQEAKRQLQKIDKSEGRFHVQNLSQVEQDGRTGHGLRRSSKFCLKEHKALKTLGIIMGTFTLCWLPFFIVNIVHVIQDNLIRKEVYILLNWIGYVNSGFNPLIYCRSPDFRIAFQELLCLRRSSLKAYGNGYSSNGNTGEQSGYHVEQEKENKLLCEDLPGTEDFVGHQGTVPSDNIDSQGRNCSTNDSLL

Row | SMILES | EC50 [nM]
1 | C[C@H](Cc1cccc(CC(=O)NC2CCCCCC2)c1)NC[C@H](O)c1ccc(O)c(CO)c1 [Example 1, N-cycloheptyl-2-{3-[(2R)-2-({(2R)-2-hydroxy-2-[4-hydroxy-3-(hydroxymethyl)phenyl]ethyl}amino)propyl]phenyl}acetamide] | 0.143
2 | C[C@H](Cc1cccc(CC(=O)NCC23CC4CC(CC(C4)C2)C3)c1)NC[C@H](O)c1ccc(O)c(CO)c1 [Example 14, N-(1-adamantylmethyl)-2-{3-[(2R)-2-({(2R)-2-hydroxy-2-[4-hydroxy-3-(hydroxymethyl)phenyl]ethyl}amino)propyl]phenyl}acetamide] | 0.064
3 | CC(C)(Cc1cccc(C(=O)NCCC23CC4CC(CC(C4)C2)C3)c1)NC[C@H](O)c1ccc(O)c(CO)c1 [Example 114] | 0.134
4 | CC(C)(Cc1cccc(C(=O)NCCc2cccc(F)c2)c1)NC[C@H](O)c1ccc(O)c(CO)c1 [Example 63, N-[2-(3-Fluorophenyl)ethyl]-3-[2-({(2R)-2-hydroxy-2-[4-hydroxy-3-(hydroxymethyl)phenyl]ethyl}amino)-2-methylpropyl]benzamide] | 0.075
5 | CC(C)(Cc1cccc(CC(=O)NCc2cc(C(F)(F)F)ccc2F)c1)NC[C@H](O)c1ccc(O)c(CO)c1 [Example 24, N-[2-fluoro-5-(trifluoromethyl)benzyl]-2-{3-[2-({(2R)-2-hydroxy-2-[4-hydroxy-3-(hydroxymethyl)phenyl]ethyl}amino)-2-methylpropyl]phenyl}acetamide] | 0.15
6 | CC(C)(Cc1cccc(CC(=O)N2CCc3ccccc3C2)c1)NC[C@H](O)c1ccc(O)c(CO)c1 [Example 23, 4{(1R)-2-[(2-{3-[2-(3,4-dihydroisoquinolin-2(1H)-yl)-2-oxoethyl]phenyl}-1,1-dimethylethyl)amino]-1-hydroxyethyl}-2-(hydroxymethyl)phenol] | 0.08
7 | C[C@H](Cc1cccc(CC(=O)N(C)CCC2CCCCC2)c1)NC[C@H](O)c1ccc(O)c(CO)c1 [Example 16, N-(2-cyclohexylethyl)-2-{3-[(2R)-2-({(2R)-2-hydroxy-2-[4-hydroxy-3-(hydroxymethyl)phenyl]ethyl}amino)propyl]phenyl}-N-methylacetamide] | 0.874
8 | O=C(Cc1cccc(CCNC[C@H](O)c2ccc(O)c(CO)c2)c1)NCCc1ccccc1 [Example 46, 2-{3-[2-({(2R)-2-hydroxy-2-[4-hydroxy-3-(hydroxymethyl)phenyl]ethyl}amino)ethyl]phenyl}-N-(2-phenylethyl)acetamide] | 0.838
9 | CC(C)(Cc1cccc(C(=O)NCCc2ccccc2C(F)(F)F)c1)NC[C@H](O)c1ccc(O)c(CO)c1 [Example 102] | 0.1
10 | Cc1cccc(CCNC(=O)c2cccc(CC(C)(C)NC[C@H](O)c3ccc(O)c(CO)c3)c2)n1 [Example 88] | 0.434
11 | C[C@H](Cc1cccc(C(=O)NCc2ccc(S(N)(=O)=O)cc2)c1)NC[C@H](O)c1ccc(O)c(CO)c1 [Example 62, N-[4-(aminosulfonyl)benzyl]-3-[(2R)-2-({(2R)-2-hydroxy-2-[4-hydroxy-3-(hydroxymethyl)phenyl]ethyl}amino)propyl]benzamide] | 0.444
12 | CC(C)(Cc1cccc(C(=O)NCC2Cc3ccccc3C2)c1)NC[C@H](O)c1ccc(O)c(CO)c1 [Example 66] | 1.16

test system: not given; test: not given; conditions: not given

Row | SMILES | melting point [°C]
13 | CC(C)(Cc1cccc(C(=O)NCCc2ccc(Cl)cc2)c1)NC[C@H](O)c1ccc(O)c(CO)c1 [Example 33, N-[2-(4-chlorophenyl)ethyl]-3-{2-[(2R)-2-hydroxy-2-(4-hydroxy-3-hydroxymethyl-phenyl)ethylamino]-2-methylpropyl}benzamide] | 139 to 140
